Laboratory results published in patent US20140323300A1, “HERBICIDAL COMPOUNDS” (SYNGENTA LIMITED, priority 2011, published 2014).

Columns and labels:
Type in all cases: in vivo
[1] = system: Alopecurus myosuroides (ALOMY); assay: Post-emergence glasshouse herbicide test; settings: post-emergence (sprayed after 8 days cultivation), 1000 g/h, evaluated after 13 days, five point scale
Description: (§1) Seeds of a variety of test species are sown in standard soil in pots (Alopecurus myosuroides (ALOMY), Setaria faberi (SETFA), Echinochloa crus-galli (ECHCG), Solanum nigrum (SOLNI), Amaranthus retoflexus (AMARE), Ipomoea hederacea (IPOHE)). After cultivation for one day (pre-emergence) or after 8 days cultivation (post-emergence) under controlled conditions in a glasshouse (at 24/16° C., day/night; 14 hours light; 65% humidity), the plants are sprayed with an aqueous spray solution derived from the formulation of the technical active ingredient in acetone/water (50:50) solution containing 0.5% Tween 20 (polyoxyethelyene sorbitan monolaurate, CAS RN 9005-64-5). Compounds are applied at 1000 g/h. The test plants are then grown in a glasshouse under controlled conditions in a glasshouse (at 24/16° C., day/night; 14 hours light; 65% humidity) and watered twice daily. After 13 days for pre and post-emergence, the test is evaluated for the percentage damage caused to the plant. The biological activities are shown in the following table on a five point scale (5=80-100%; 4=60-79%; 3=40-59%; 2=20-39%; 1=0-19%).

[2] = system: Amaranthus retoflexus (AMARE); assay: Post-emergence glasshouse herbicide test; settings: post-emergence (sprayed after 8 days cultivation), 1000 g/h, evaluated after 13 days, five point scale
Description: as §1

[3] = system: Echinochloa crus-galli (ECHCG); assay: Post-emergence glasshouse herbicide test; settings: post-emergence (sprayed after 8 days cultivation), 1000 g/h, evaluated after 13 days, five point scale
Description: as §1

[4] = system: Ipomoea hederacea (IPOHE); assay: Post-emergence glasshouse herbicide test; settings: post-emergence (sprayed after 8 days cultivation), 1000 g/h, evaluated after 13 days, five point scale
Description: as §1

Setaria faberi (SETFA) [5] = assay: Post-emergence glasshouse herbicide test; settings: post-emergence (sprayed after 8 days cultivation), 1000 g/h, evaluated after 13 days, five point scale
Description: as §1

Solanum nigrum (SOLNI) [6] = assay: Post-emergence glasshouse herbicide test; settings: post-emergence (sprayed after 8 days cultivation), 1000 g/h, evaluated after 13 days, five point scale
Description: as §1

[7] = system: Alopecurus myosuroides (ALOMY); assay: Pre-emergence glasshouse herbicide test; settings: pre-emergence (sprayed after one day cultivation), 1000 g/h, evaluated after 13 days, five point scale
Description: as §1

[8] = system: Amaranthus retoflexus (AMARE); assay: Pre-emergence glasshouse herbicide test; settings: pre-emergence (sprayed after one day cultivation), 1000 g/h, evaluated after 13 days, five point scale
Description: as §1

[9] = system: Echinochloa crus-galli (ECHCG); assay: Pre-emergence glasshouse herbicide test; settings: pre-emergence (sprayed after one day cultivation), 1000 g/h, evaluated after 13 days, five point scale
Description: as §1

[10] = system: Ipomoea hederacea (IPOHE); assay: Pre-emergence glasshouse herbicide test; settings: pre-emergence (sprayed after one day cultivation), 1000 g/h, evaluated after 13 days, five point scale
Description: as §1

Setaria faberi (SETFA) [11] = assay: Pre-emergence glasshouse herbicide test; settings: pre-emergence (sprayed after one day cultivation), 1000 g/h, evaluated after 13 days, five point scale
Description: as §1

Solanum nigrum (SOLNI) [12] = assay: Pre-emergence glasshouse herbicide test; settings: pre-emergence (sprayed after one day cultivation), 1000 g/h, evaluated after 13 days, five point scale
Description: as §1

SMILES	percentage damage caused to the plant, POST Application ALOMY [1]	percentage damage caused to the plant, POST Application AMARE [2]	percentage damage caused to the plant, POST Application ECHCG [3]	percentage damage caused to the plant, POST Application IPOHE [4]	percentage damage caused to the plant, POST Application SETFA (Setaria faberi (SETFA) [5])	percentage damage caused to the plant, POST Application SOLNI (Solanum nigrum (SOLNI) [6])	percentage damage caused to the plant, PRE Application ALOMY [7]	percentage damage caused to the plant, PRE Application AMARE [8]	percentage damage caused to the plant, PRE Application ECHCG [9]	percentage damage caused to the plant, PRE Application IPOHE [10]	percentage damage caused to the plant, PRE Application SETFA (Setaria faberi (SETFA) [11])	percentage damage caused to the plant, PRE Application SOLNI (Solanum nigrum (SOLNI) [12])
Cc1c(-n2ncc(S(C)(=O)=O)c(O)c2=O)ccc(S(C)(=O)=O)c1C1=NOCC1 [Compound 1.011, 2-[3-(4,5-dihydroisoxazol-3-yl)-2-methyl-4-methylsulfonyl-phenyl]-4-hydroxy-5-methylsulfonyl-pyridazin-3-one]	5 (5=80-100%)	5 (5=80-100%)	5 (5=80-100%)	5 (5=80-100%)	5 (5=80-100%)	5 (5=80-100%)	5 (5=80-100%)	5 (5=80-100%)	5 (5=80-100%)	5 (5=80-100%)	5 (5=80-100%)	5 (5=80-100%)
Cc1c(-n2ncc(Br)c(O)c2=O)ccc(S(C)(=O)=O)c1C1=NOCC1 [Compound 1.013]	5 (5=80-100%)	5 (5=80-100%)	5 (5=80-100%)	5 (5=80-100%)	5 (5=80-100%)	5 (5=80-100%)	4 (4=60-79%)	5 (5=80-100%)	5 (5=80-100%)	4 (4=60-79%)	5 (5=80-100%)	5 (5=80-100%)
COc1cnn(-c2ccc(C(F)(F)F)cc2C(F)(F)F)c(=O)c1O [Compound 1.014]	1 (1=0-19%)	5 (5=80-100%)	1 (1=0-19%)	3 (3=40-59%)	4 (4=60-79%)	5 (5=80-100%)	1 (1=0-19%)	1 (1=0-19%)	1 (1=0-19%)	1 (1=0-19%)	1 (1=0-19%)	1 (1=0-19%)
O=c1c(O)c(Cl)cnn1-c1ccc(C(F)(F)F)cc1C(F)(F)F [Compound 1.015]	5 (5=80-100%)	5 (5=80-100%)	5 (5=80-100%)	5 (5=80-100%)	5 (5=80-100%)	5 (5=80-100%)	1 (1=0-19%)	5 (5=80-100%)	2 (2=20-39%)	4 (4=60-79%)	1 (1=0-19%)	5 (5=80-100%)
Cc1cnn(-c2ccc(S(C)(=O)=O)c(C3=NOCC3)c2C)c(=O)c1O [Compound 1.016, 2-[3-(4,5-dihydroisoxazol-3-yl)-2-methyl-4-methylsulfonyl-phenyl]-4-hydroxy-5-methyl-pyridazin-3-one]	5 (5=80-100%)	5 (5=80-100%)	5 (5=80-100%)	5 (5=80-100%)	5 (5=80-100%)	5 (5=80-100%)	5 (5=80-100%)	5 (5=80-100%)	5 (5=80-100%)	4 (4=60-79%)	5 (5=80-100%)	5 (5=80-100%)
CS(=O)(=O)c1ccc(-n2ncc(Cl)c(O)c2=O)c(Cl)c1C1=NOCC1 [Compound 1.017]	5 (5=80-100%)	5 (5=80-100%)	5 (5=80-100%)	5 (5=80-100%)	5 (5=80-100%)	5 (5=80-100%)	5 (5=80-100%)	5 (5=80-100%)	5 (5=80-100%)	5 (5=80-100%)	5 (5=80-100%)	5 (5=80-100%)
CSc1cnn(-c2ccc(S(C)(=O)=O)c(C3=NOCC3)c2C)c(=O)c1O [Compound 1.018, 2-[3-(4,5-dihydroisoxazol-3-yl)-2-methyl-4-methylsulfonyl-phenyl]-4-hydroxy-5-methylsulfanyl-pyridazin-3-one]	2 (2=20-39%)	5 (5=80-100%)	2 (2=20-39%)	5 (5=80-100%)	2 (2=20-39%)	5 (5=80-100%)	2 (2=20-39%)	5 (5=80-100%)	2 (2=20-39%)	5 (5=80-100%)	2 (2=20-39%)	5 (5=80-100%)
Cc1nc(C(F)(F)F)ccc1-n1ncc(Cl)c(O)c1=O [Compound 1.019]	5 (5=80-100%)	5 (5=80-100%)	5 (5=80-100%)	5 (5=80-100%)	5 (5=80-100%)	5 (5=80-100%)	5 (5=80-100%)	5 (5=80-100%)	5 (5=80-100%)	5 (5=80-100%)	5 (5=80-100%)	5 (5=80-100%)
Cc1cnn(-c2ccc(C(F)(F)F)nc2C)c(=O)c1O [Compound 1.020]	3 (3=40-59%)	5 (5=80-100%)	5 (5=80-100%)	5 (5=80-100%)	5 (5=80-100%)	5 (5=80-100%)	3 (3=40-59%)	5 (5=80-100%)	5 (5=80-100%)	5 (5=80-100%)	5 (5=80-100%)	5 (5=80-100%)
C=Cc1cnn(-c2ccc(C(F)(F)F)nc2C)c(=O)c1O [Compound 1.021]	3 (3=40-59%)	5 (5=80-100%)	5 (5=80-100%)	5 (5=80-100%)	5 (5=80-100%)	5 (5=80-100%)	3 (3=40-59%)	5 (5=80-100%)	5 (5=80-100%)	5 (5=80-100%)	5 (5=80-100%)	5 (5=80-100%)
